{"source": "patent US11780838B1", "about": "“Pyrrolo[3,2-b]quinoline compounds as antibacterial agents” (King Faisal University, priority 2023, dated 2023)", "key": {"[1]": {"system": "Mycobacterium tuberculosis H37Rv strain", "assay": "Anti-tubercular properties (alamar blue microplate MIC)", "assay_type": "cell-based", "conditions": "168 h, seven days at 37° C., read-out: anti-mycobacterial activity (MIC)"}, "DNA gyrase from E. coli": {"target": "T1, DNA gyrase from E. coli (Escherichia coli, UniProt P0AES4+P0AES6)", "T1 construct": "purchased Inspiralis", "T1 sequence (P0AES4 whole entry, one chain of several)": "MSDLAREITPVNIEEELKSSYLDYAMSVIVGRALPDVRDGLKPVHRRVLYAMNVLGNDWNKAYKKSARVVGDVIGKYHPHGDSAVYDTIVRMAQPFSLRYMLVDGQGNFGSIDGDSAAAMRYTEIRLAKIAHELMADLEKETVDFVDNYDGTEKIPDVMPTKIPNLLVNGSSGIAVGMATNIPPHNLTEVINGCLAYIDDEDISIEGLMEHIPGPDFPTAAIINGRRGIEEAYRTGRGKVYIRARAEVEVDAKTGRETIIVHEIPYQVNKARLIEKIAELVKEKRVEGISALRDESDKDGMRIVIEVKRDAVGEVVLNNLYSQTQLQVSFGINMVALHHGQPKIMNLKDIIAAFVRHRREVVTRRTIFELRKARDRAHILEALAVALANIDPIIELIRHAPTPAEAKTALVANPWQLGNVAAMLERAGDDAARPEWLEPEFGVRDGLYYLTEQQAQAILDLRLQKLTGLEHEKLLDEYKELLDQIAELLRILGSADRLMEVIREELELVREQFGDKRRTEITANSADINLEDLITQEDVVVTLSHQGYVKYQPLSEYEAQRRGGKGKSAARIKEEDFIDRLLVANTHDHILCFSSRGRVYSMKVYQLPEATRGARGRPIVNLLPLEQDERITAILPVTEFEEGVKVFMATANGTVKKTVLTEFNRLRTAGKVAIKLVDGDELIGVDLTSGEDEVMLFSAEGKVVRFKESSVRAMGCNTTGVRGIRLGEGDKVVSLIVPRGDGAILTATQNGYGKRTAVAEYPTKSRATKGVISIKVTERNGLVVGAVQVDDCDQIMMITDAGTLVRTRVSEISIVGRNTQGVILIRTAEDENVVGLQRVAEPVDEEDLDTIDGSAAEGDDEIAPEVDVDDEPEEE", "assay": "Inhibitory activities on E. coli DNA gyrase (Inspiralis assay)", "assay_type": "biochemical", "description": "Inhibitory potencies were investigated utilizing the Inspiralis assay on streptavidin-coated 96-well microtiter plates. First, the plates were rehydrated with buffer (20 mM Tris-HCl with pH 7.6, 0.01% w/v BSA, 0.05% v/v Tween 20, 137 mM NaCl) and the biotinylated oligonucleotide was then immobilized. After washing off the unbound oligonucleotide, the enzyme test was performed. […] Reaction solutions were incubated at 37° C. for 30 min. After that, the TF buffer (50 mM NaOAc with pH 5.0, 50 mM NaCl and 50 mM MgCl2) was added to terminate the enzymatic reaction. After additional incubation for 30 min at rt, during which biotinoligonucleotide-plasmid triplex was formed, the unbound plasmid was washed off using TF buffer and SybrGOLD in T10 buffer (10 mM Tris HCl with pH 8.0 and 1 mM EDTA) was added. The fluorescence was measured with a microplate reader (BioTek Synergy H4, excitation: 485 nm, emission: 535 nm). Initial screening was done at 100 or 10 μM concentration of inhibitors. […] GraphPad Prism software was used to calculate the IC50 values. The result is given as the average value of three independent measurements."}, "[2]": {"system": "Staphylococcus aureus ATCC 29213", "assay": "In vitro antibacterial activity (MIC, CLSI M07-A10 dilution)", "assay_type": "cell-based", "conditions": "ATCC29213"}, "[3]": {"system": "Staphylococcus aureus ATCC BAA-1556 (MERSA resistant)", "assay": "In vitro antibacterial activity (MIC, CLSI M07-A10 dilution)", "assay_type": "cell-based", "conditions": "ATCCBAA1556"}, "[4]": {"system": "Staphylococcus epidermidis", "assay": "In vitro antibacterial activity (MIC, CLSI M07-A10 dilution)", "assay_type": "cell-based"}, "[5]": {"system": "Bacillus subtilis MTCC 441", "assay": "In vitro antibacterial activity (MIC, CLSI M07-A10 dilution)", "assay_type": "cell-based", "conditions": "MTCC441"}, "[6]": {"system": "Enterococcus faecium ATCC 35667", "assay": "In vitro antibacterial activity (MIC, CLSI M07-A10 dilution)", "assay_type": "cell-based", "conditions": "ATCC35667"}, "[7]": {"system": "Enterococcus faecium ATCC 51559 (VRE resistant)", "assay": "In vitro antibacterial activity (MIC, CLSI M07-A10 dilution)", "assay_type": "cell-based"}, "[8]": {"system": "Klebsiella pneumonia MTCC 618", "assay": "In vitro antibacterial activity (MIC, CLSI M07-A10 dilution)", "assay_type": "cell-based", "conditions": "Klebsiella pneumoniae, MTCC618"}, "[9]": {"system": "Escherichia coli MTCC 443", "assay": "In vitro antibacterial activity (MIC, CLSI M07-A10 dilution)", "assay_type": "cell-based", "conditions": "MTCC443"}, "[10]": {"system": "Pseudomonas aeruginosa MTCC 741", "assay": "In vitro antibacterial activity (MIC, CLSI M07-A10 dilution)", "assay_type": "cell-based", "conditions": "MTCC741"}}, "note": "Like-named read-outs stand apart in the source and are kept apart here."}
{"smiles": "CNc1cc(F)cc2cc3[nH]c(-c4ccc(C(=O)O)cc4CN(C)C4CCCCC4)cc3nc12", "note": "[Compound 4, 3-((cyclohexyl(methyl)amino)methyl)-4-(7-fluoro-5-(methylamino)-1H-pyrrolo[3,2-b]quinolin-2-yl)benzoic acid]", "values": [{"measurement": "MIC", "setting": "[1]", "result": 8, "unit": "µg/mL"}, {"measurement": "IC50", "setting": "DNA gyrase from E. coli", "result": 32, "unit": "nM"}]}
{"smiles": "CCCCCN(C)Cc1cc(C(=O)O)ccc1-c1cc2nc3c(NC)cc(F)cc3cc2[nH]1", "note": "[Compound 6, 4-(7-fluoro-5-(methylamino)-1H-pyrrolo[3,2-b]quinolin-2-yl)-3-((methyl(pentyl)amino)methyl)benzoic acid]", "values": [{"measurement": "MIC", "setting": "[2]", "result": 1, "unit": "µg/mL"}, {"measurement": "MIC", "setting": "[3]", "result": 1, "unit": "µg/mL"}, {"measurement": "MIC", "setting": "[4]", "result": 1, "unit": "µg/mL"}, {"measurement": "MIC", "setting": "[5]", "result": 0.75, "unit": "µg/mL"}, {"measurement": "MIC", "setting": "[6]", "result": 1, "unit": "µg/mL"}, {"measurement": "MIC", "setting": "[7]", "result": 1.25, "unit": "µg/mL"}, {"measurement": "MIC", "setting": "[8]; Klebsiella pneumonia MTCC 618, read-out: MIC", "result": 1.25, "unit": "µg/mL"}, {"measurement": "MIC", "setting": "[9]", "result": 8, "unit": "µg/mL"}, {"measurement": "MIC", "setting": "[10]", "result": 1, "unit": "µg/mL"}]}
{"smiles": "CN[C@H](CC(C)C)C(=O)N[C@H]1C(=O)N[C@@H](CC(N)=O)C(=O)N[C@H]2C(=O)N[C@H]3C(=O)N[C@H](C(=O)N[C@H](C(=O)O)c4cc(O)cc(O)c4-c4cc3ccc4O)[C@H](O)c3ccc(c(Cl)c3)Oc3cc2cc(c3O[C@@H]2O[C@H](CO)[C@@H](O)[C@H](O)[C@H]2O[C@H]2C[C@](C)(N)[C@H](O)[C@H](C)O2)Oc2ccc(cc2Cl)[C@H]1O", "note": "[Vancomycin, reference compound]", "values": [{"measurement": "MIC", "setting": "[8]", "result": "> 128", "unit": "µg/mL"}]}
